Measurements: ChEMBL document CHEMBL1146874, “Metabolism investigation leading to novel drug design 2: orally active prostacyclin mimetics. Part 5” (Bioorg Med Chem Lett, 2006)

Tests used:
[1] = Cmax in human at 12.5 ug, po; assay type: ADME, organism-based; parameters: dose 12.5 ug, route oral; conditions: in vivo
[2] = AUC in human at 12.5 ug, po; assay type: ADME, organism-based; conditions: plasma
[3] = Half life in human at 12.5 ug, po; assay type: ADME, organism-based; conditions: in vivo
[4] = Bioavailability in human at 12.5 ug, po; assay type: ADME, organism-based; conditions: in vivo
Homo sapiens = species on record: Homo sapiens; assay: Inhibition of ADP-induced platelet aggregation in human platelet rich plasma; assay type: functional, organism-based
[5] = Intrinsic clearance in rat liver microsomes after 60 mins; assay type: ADME, Microsome
[6] = Cmax in rat at 10 mg/kg, po; assay type: ADME, organism-based; parameters: dose 10 mg/kg, route oral; conditions: in vivo
[7] = Bioavailability in rat at 10 mg/kg, […]; assay type: ADME, organism-based; conditions: in vivo
Rattus norvegicus [8] = assay: AUC in rat at 10 mg/kg, po; assay type: ADME, organism-based, Plasma; parameters: dose 10 mg/kg, route oral; conditions: in vivo
[9] = Blood to plasma ratio in human at 12.5 ug, po; assay type: ADME, organism-based; conditions: read-out: BPR
Rattus norvegicus [10] = species on record: Rattus norvegicus; assay: Inhibition of ADP-induced platelet aggregation in rat platelet rich plasma; assay type: functional, organism-based
[11] = Beta half life in rat at 10 mg/kg, iv; assay type: ADME, organism-based; parameters: dose 10 mg/kg, route intravenous; conditions: in vivo
[12] = Total clearance in rat at 10 mg/kg, iv; assay type: ADME, organism-based; parameters: dose 10 mg/kg, route intravenous; conditions: in vivo
Rattus norvegicus [13] = assay: Stability in orally dosed rat measured as M2 level in bile; assay type: ADME, organism-based; conditions: in vivo, po
Rattus norvegicus [14] = assay: Stability in orally dosed rat measured as glucuronide of M2 level in bile; assay type: ADME, organism-based; conditions: in vivo, po

SMILES | IC50 (Homo sapiens) [µM] | CLint scaled [5] [L/h/kg] | IC50 (Rattus norvegicus [10]) [µM] | other results
O=C(O)COc1cccc2c1CC[C@](O)(COC(=O)N(c1ccc(F)cc1)c1ccc(F)cc1)C2 | 0.059 | 0.276 | > 10 | Cmax [6]: 0.575 µg/mL; half-life [11]: 3 h; clearance [12]: 1.82 L/h/kg; bioavailability [7]: 29.5%; AUC (Rattus norvegicus [8]): 1.61 µg·h/mL
O=C(O)COc1cccc2c1CC[C@](O)(COC(=O)N(c1ccccc1F)c1ccccc1F)C2 | 0.063 | 2.69 | – | –
O=C(O)COc1cccc2c1CC[C@](O)(COC(=O)N(c1ccc(F)cc1)c1ccccc1F)C2 | 0.022 | 0.708 | 5.11 | –
O=C(O)COc1cccc2c1CC[C@](O)(COC(=O)N(c1ccc(F)cc1)c1cccc(F)c1)C2 | 0.025 | 0.702 | > 10 | –
O=C(O)COc1cccc2c1CC[C@](O)(COC(=O)N(c1cccc(F)c1)c1cccc(F)c1)C2 | 0.014 | 0.81 | > 10 | –
O=C(O)COc1cccc2c1CC[C@](O)(COC(=O)N(c1ccccc1)c1ccccc1)[C@H]2O | 1.29 | – | > 10 | –

The next lines start with results.

IC50 (Homo sapiens) [µM] | CLint scaled [5] [L/h/kg] | IC50 (Rattus norvegicus [10]) [µM] | SMILES | other results
0.018 | 1.91 | – | O=C(O)COc1cccc2c1CC[C@](O)(COC(=O)N(c1ccccc1)c1ccccc1)C2 | Cmax [1]: 0.000157 µg/mL; AUC [2]: 0.000327 µg·h/mL; half-life [3]: 1.5 h; bioavailability [4]: 55%; Cmax [6]: 0.282 µg/mL; bioavailability [7]: 9.6%; AUC (Rattus norvegicus [8]): 0.601 µg·h/mL; blood plasma ratio [9]: 0.57
0.013 | 0.618 | 4.58 | O=C(O)COc1cccc2c1CC[C@](O)(COC(=O)N(c1ccccc1)c1ccc(F)cc1)C2 | Cmax [6]: 0.434 µg/mL; half-life [11]: 1.6 h; clearance [12]: 1.97 L/h/kg; bioavailability [7]: 19.2%; AUC (Rattus norvegicus [8]): 0.961 µg·h/mL
0.049 | 0.738 | 6.49 | O=C(O)COc1cccc2c1CC[C@](O)(COC(=O)N(c1ccccc1)c1ccc(Br)cc1)C2 | –
0.198 | – | > 10 | O=C(O)COc1cccc2c1C(O)C[C@](O)(COC(=O)N(c1ccccc1)c1ccccc1)C2 (stereo partly drawn) | –
0.035 | – | 2.49 | O=C(O)COc1cccc2c1CC[C@](O)(COC(=O)N(c1ccccc1)c1ccc(O)cc1)C2 | Stability (Rattus norvegicus [13]): 12%; Stability (Rattus norvegicus [14]): 33%
